Inhibition data for 31 compounds are collected here from ChEMBL document CHEMBL4418495, “Entpd5 inhibitors” (2012).

In assay [1] the target is T1, Uridylate kinase (Escherichia coli (strain K12)) (UniProt P0A7E9).
T1 sequence (whole entry): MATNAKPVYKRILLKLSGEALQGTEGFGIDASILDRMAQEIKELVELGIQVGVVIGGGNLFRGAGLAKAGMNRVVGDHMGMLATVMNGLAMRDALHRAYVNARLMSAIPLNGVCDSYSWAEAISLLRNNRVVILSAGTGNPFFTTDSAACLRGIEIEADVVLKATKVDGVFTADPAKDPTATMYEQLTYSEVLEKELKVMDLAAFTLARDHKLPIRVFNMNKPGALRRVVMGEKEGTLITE
Briefly: Inhibition of recombinant Escherichia coli UMP kinase pyrH catalyzed UMP phosphorylation in presence of GTP and ATP incubated for 1 hr by luminescence based assay.

Assay [2] deals with T2, Nucleoside diphosphate phosphatase ENTPD5 (Homo sapiens) (UniProt O75356).
T2 sequence (whole entry): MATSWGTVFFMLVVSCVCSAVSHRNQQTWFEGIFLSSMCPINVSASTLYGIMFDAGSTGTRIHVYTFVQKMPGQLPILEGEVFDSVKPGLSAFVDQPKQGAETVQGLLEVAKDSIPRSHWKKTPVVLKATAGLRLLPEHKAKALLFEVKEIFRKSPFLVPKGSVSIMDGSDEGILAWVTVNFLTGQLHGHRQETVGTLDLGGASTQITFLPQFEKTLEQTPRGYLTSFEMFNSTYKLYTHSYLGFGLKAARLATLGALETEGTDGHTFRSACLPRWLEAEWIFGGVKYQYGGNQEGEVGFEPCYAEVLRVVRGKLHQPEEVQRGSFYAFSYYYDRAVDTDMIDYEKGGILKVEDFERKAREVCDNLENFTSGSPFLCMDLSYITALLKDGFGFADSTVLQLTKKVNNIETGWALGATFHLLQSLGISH
Briefly: Inhibition of human recombinant ENTPD5 expressed in insect cells assessed as reduction in UDP hydrolysis at 1 uM incubated for 1 hr in presence of UMP, GTP and ATP by Escherichia coli UMP kinase pyrH catalyzed UMP phosphorylation coupled luciferase assay.

Assay [3] concerns the target T2, Nucleoside diphosphate phosphatase ENTPD5 (Homo sapiens). Briefly: Inhibition of human recombinant ENTPD5 expressed in insect cells assessed as reduction in UDP hydrolysis up to 10 uM incubated for 1 hr in presence of UMP, GTP and ATP by Escherichia coli UMP kinase pyrH catalyzed UMP phosphorylation coupled luciferase assay.
Assay [4] shares this target. Briefly: Inhibition of human recombinant ENTPD5 expressed in insect cells assessed as reduction in reduction in UDP hydrolysis by measuring inorganic phosphate release incubated for 1 hr by malachite green based assay.

Active and inactive are the calls of the source. The rule behind the calls is not given here.

On to `COC(=O)Cn1c(/C=C2\C(=O)NC(=S)N(c3cccc(Br)c3)C2=O)cc2ccccc21`, for which, in assay [1], the inhibition entry is “inactive”. Moreover, the inhibition result in assay [2] and in assay [4] was “Active” each time. In addition, in assay [3], the inhibition entry is “Dose-dependent effect”.

For the compound `NC1=C/C(=C2\Nc3cc(N)ccc3S2)C(=O)C=C1`, the inhibition entry in assay [1] was “inactive”. In addition, the inhibition entry in assay [2] and in assay [4] was “Active” in each case. The inhibition result in assay [3] was “Dose-dependent effect”.

Regarding `O=C1c2c(O)cccc2Cc2cccc(O)c21`, the inhibition result in assay [1] was “inactive”. For the same compound, the inhibition entry in assay [2] and in assay [4] was “Active” throughout. Also, the inhibition result in assay [3] was “Dose-dependent effect”.

Take `Clc1ccc(C2N=c3c(-c4ccco4)nnc(-c4nc5ccccc5s4)c3=N2)cc1` (centres undefined): the inhibition result in assay [1] is “inactive”. In addition, the inhibition result in assay [2] and in assay [4] was “Active” each time. For the same compound, the inhibition result in assay [3] was “Dose-dependent effect”.

Turning to `Cc1ccc(-c2ccc(C=C3C(=O)NC(=O)NC3=O)o2)c(Br)c1`, the inhibition result in assay [1] was “inactive”. Moreover, the inhibition entry in assay [2] and in assay [4] was “Active” in each case. For the same compound, the inhibition result in assay [3] was “Dose-dependent effect”.

For `O=[N+]([O-])c1ccc(NCc2ccco2)c2nonc12`, the inhibition result in assay [1] was “inactive”. Besides, the inhibition entry in assay [2] and in assay [4] was “Active” each time. Besides, the inhibition entry in assay [3] is “Dose-dependent effect”.

`O=C1NC(=S)NC(=O)C1=Cc1cn(-c2ccccc2)nc1-c1ccccc1`: in assay [1], the inhibition result was “inactive”. The inhibition entry in assay [2] and in assay [4] was “Active” in each case. Also, the inhibition result in assay [3] is “Dose-dependent effect”.

For `CN(C)c1ccc(/C=C(\NC(=O)c2cccc(F)c2)C(=O)N/N=C/c2cc(Cl)cc([N+](=O)[O-])c2O)cc1`, the inhibition entry in assay [1] was “inactive”. Moreover, the inhibition result in assay [2] and in assay [4] was “Active” throughout. Moreover, the inhibition entry in assay [3] was “Dose-dependent effect”.

Consider `O=C1NC(=S)N(c2ccc(Cl)cc2)C(=O)/C1=C\c1ccc(-c2ccccc2C(=O)O)o1`, for which the inhibition entry in assay [1] was “inactive”. Moreover, the inhibition result in assay [2] and in assay [4] was “Active” throughout. Further, the inhibition entry in assay [3] is “Dose-dependent effect”.

As to `COc1ccc([C@@H]2Nc3ccc(Br)cc3[C@@H]3C=CC[C@@H]32)cc1[N+](=O)[O-]`, in assay [1], the inhibition entry is “inactive”. The inhibition result in assay [2] and in assay [4] was “Active” throughout. Besides, the inhibition entry in assay [3] is “Dose-dependent effect”.

Consider `COc1cc(/C=C2/SC(=S)N(C3CCCCC3)C2=O)cc(Cl)c1O`, for which the inhibition entry in assay [1] was “inactive”. In addition, the inhibition result in assay [2] and in assay [4] was “Active” throughout. Also, in assay [3], the inhibition result was “Dose-dependent effect”.

With `O=C(NC12CC3CC(CC(C3)C1)C2)N1CCN(C(=O)c2ccco2)CC1`, the inhibition result in assay [1] is “inactive”. In addition, the inhibition entry in assay [2] and in assay [4] was “Active” throughout. The inhibition entry in assay [3] is “Dose-dependent effect”.

Regarding `O=[N+]([O-])c1cccc(C2C3CC=CC3c3cc([N+](=O)[O-])cc4c3N2CC2CC=CC42)c1` (centres undefined), in assay [1], the inhibition entry is “inactive”. The inhibition result in assay [2] and in assay [4] was “Active” throughout. For the same compound, in assay [3], the inhibition result is “Dose-dependent effect”.

With `Nc1nc(SCc2nnc(Nc3ccccc3)s2)nc2sc3c(c12)CCC3`, the inhibition result in assay [1] is “inactive”. The inhibition entry in assay [2] and in assay [4] was “Active” each time. The inhibition entry in assay [3] is “Dose-dependent effect”.

Take `CCN1C(=O)c2ccc(-c3ccc(C=C4C(=O)NC(=S)NC4=O)o3)cc2C1=O`: in assay [1], the inhibition result was “inactive”. Also, the inhibition result in assay [2] and in assay [4] was “Active” throughout. In addition, the inhibition result in assay [3] is “Dose-dependent effect”.

Regarding `COC(=O)c1cccc2c1NC(c1ccc([N+](=O)[O-])cc1)C1CC=CC21` (centres undefined), the inhibition entry in assay [1] was “inactive”. Further, the inhibition entry in assay [2] and in assay [4] was “Active” in each case. The inhibition result in assay [3] was “Dose-dependent effect”.

For `O=C(Nc1ccc2c(c1)S(=O)(=O)c1cc(NC(=O)c3cccs3)ccc1-2)c1cccs1`, the inhibition result in assay [1] was “inactive”. The inhibition entry in assay [2] and in assay [4] was “Active” in each case. For the same compound, in assay [3], the inhibition result is “Dose-dependent effect”.

`Cc1nn2cc(-c3ccccc3)cc2c2c(C)n(C)c(C)c12`: the inhibition result in assay [1] is “inactive”. In addition, the inhibition result in assay [2] and in assay [4] was “Active” in each case. Also, the inhibition entry in assay [3] is “Dose-dependent effect”.

As for `O=S(=O)(Nc1ccccc1F)c1ccc2c(c1)[C@@H]1C=CC[C@@H]1[C@@H](c1ccc(F)cc1)N2`, the inhibition result in assay [1] is “inactive”. Also, the inhibition result in assay [2] and in assay [4] was “Active” each time. Moreover, the inhibition result in assay [3] was “Dose-dependent effect”.

`O=C1/C(=C/c2ccc(-c3ccc(Cl)cc3)o2)SC(=S)N1Cc1ccco1`: the inhibition result in assay [1] was “inactive”. Also, the inhibition entry in assay [2] and in assay [4] was “Active” throughout. In assay [3], the inhibition result was “Dose-dependent effect”.

Take `NC(=O)c1cc2cc(Br)ccc2o/c1=N\c1cc(C(F)(F)F)ccc1N1CCCCC1`: in assay [1], the inhibition entry was “inactive”. The inhibition entry in assay [2] and in assay [4] was “Active” in each case. Further, the inhibition result in assay [3] is “Dose-dependent effect”.

Turning to `O=C(Nc1c[nH]c(=O)[nH]c1=O)c1cccc(N2C(=O)c3ccc([N+](=O)[O-])cc3C2=O)c1`, the inhibition entry in assay [1] was “inactive”. Moreover, the inhibition entry in assay [2] and in assay [4] was “Active” throughout. Moreover, the inhibition result in assay [3] is “Dose-dependent effect”.

Take `O=C1OC(c2ccccc2)OC(=O)C1=Cc1ccc(-c2cccc(Br)c2)o1` (centres undefined): the inhibition result in assay [1] is “inactive”. For the same compound, the inhibition entry in assay [2] and in assay [4] was “Active” each time. Further, in assay [3], the inhibition entry was “Dose-dependent effect”.

With `O=C1/C(=C/c2ccc(-c3ccc(Br)cc3)o2)SC(=S)N1Cc1ccco1`, the inhibition entry in assay [1] was “inactive”. The inhibition entry in assay [2] and in assay [4] was “Active” throughout. Further, in assay [3], the inhibition entry was “Dose-dependent effect”.

In the case of `COc1ccc(C(c2cc(C(C)(C)C)c(O)c(C(C)(C)C)c2)N2CCOCC2)cc1` (centres undefined), in assay [1], the inhibition result was “inactive”. Besides, the inhibition result in assay [2] and in assay [4] was “Active” throughout. For the same compound, the inhibition result in assay [3] is “Dose-dependent effect”.

For `COc1cccc(OCCn2cc(/C=C3/C(=N)N4N=C(C(C)C)SC4=NC3=O)c3ccccc32)c1`, the inhibition entry in assay [1] was “inactive”. Besides, the inhibition result in assay [2] and in assay [4] was “Active” each time. The inhibition entry in assay [3] is “Dose-dependent effect”.

`N#CC1=C(N)n2c(s/c(=C\c3cc(Br)ccc3O)c2=O)=C(C#N)C1c1cc(Br)ccc1O` (centres undefined): the inhibition entry in assay [1] is “inactive”. Further, the inhibition result in assay [2] and in assay [4] was “Active” throughout. The inhibition result in assay [3] is “Dose-dependent effect”.

Turning to `O=C1NC(=S)NC(=O)C1=Cc1cn(-c2ccccc2)nc1-c1cc2c(ccc3ccccc32)oc1=O`, the inhibition result in assay [1] was “inactive”. The inhibition result in assay [2] and in assay [4] was “Active” in each case. Also, the inhibition result in assay [3] was “Dose-dependent effect”.

`C#CCn1cc(/C=C2\C(=O)NC(=S)N(c3ccc(Br)cc3)C2=O)c2ccccc21`: the inhibition result in assay [1] was “inactive”. For the same compound, the inhibition result in assay [2] and in assay [4] was “Active” in each case. In addition, the inhibition entry in assay [3] is “Dose-dependent effect”.

Take `COc1cc(-c2ccc(/C=C/c3[nH]c(=O)[nH]c(=O)c3[N+](=O)[O-])o2)c(OC)cc1Cl`: the inhibition entry in assay [1] was “inactive”. The inhibition result in assay [2] and in assay [4] was “Active” each time. In addition, the inhibition entry in assay [3] is “Dose-dependent effect”.

As to `O=C(Cn1cc(/C=C2/C(=O)NC(=O)N(c3ccc4c(c3)OCO4)C2=O)c2ccccc21)Nc1ccccc1`, the inhibition entry in assay [1] is “inactive”. Moreover, the inhibition result in assay [2] and in assay [4] was “Active” in each case. The inhibition entry in assay [3] was “Dose-dependent effect”.
